Data: patent US6265577A, “Pyrazolopyridylpyridazinone derivatives and process for the preparation thereof” (Kyorin Pharmaceuticals Co., Ltd., priority 1996, dated 2001)
≈ marks a conversion by molar mass, not a printed value.

Columns and labels:
Type in all cases: biochemical
[1] = molecular target: T1, phosphodiesterase II from respiratory tract (Cavia porcellus, UniProt A0A286XUV5); assay: Measurement of phosphodiesterase-inhibiting activity, respiratory tract, II; conditions: guinea pig respiratory tract; 1 μM cAMP or cGMP substrate, 60 minutes at 30° C., EIA
T1 construct: fractions were extracted from respiratory tract and heart of guinea pig; from tissue; host or cells: guinea pig respiratory tract
T1 sequence (A0A286XUV5 22-936): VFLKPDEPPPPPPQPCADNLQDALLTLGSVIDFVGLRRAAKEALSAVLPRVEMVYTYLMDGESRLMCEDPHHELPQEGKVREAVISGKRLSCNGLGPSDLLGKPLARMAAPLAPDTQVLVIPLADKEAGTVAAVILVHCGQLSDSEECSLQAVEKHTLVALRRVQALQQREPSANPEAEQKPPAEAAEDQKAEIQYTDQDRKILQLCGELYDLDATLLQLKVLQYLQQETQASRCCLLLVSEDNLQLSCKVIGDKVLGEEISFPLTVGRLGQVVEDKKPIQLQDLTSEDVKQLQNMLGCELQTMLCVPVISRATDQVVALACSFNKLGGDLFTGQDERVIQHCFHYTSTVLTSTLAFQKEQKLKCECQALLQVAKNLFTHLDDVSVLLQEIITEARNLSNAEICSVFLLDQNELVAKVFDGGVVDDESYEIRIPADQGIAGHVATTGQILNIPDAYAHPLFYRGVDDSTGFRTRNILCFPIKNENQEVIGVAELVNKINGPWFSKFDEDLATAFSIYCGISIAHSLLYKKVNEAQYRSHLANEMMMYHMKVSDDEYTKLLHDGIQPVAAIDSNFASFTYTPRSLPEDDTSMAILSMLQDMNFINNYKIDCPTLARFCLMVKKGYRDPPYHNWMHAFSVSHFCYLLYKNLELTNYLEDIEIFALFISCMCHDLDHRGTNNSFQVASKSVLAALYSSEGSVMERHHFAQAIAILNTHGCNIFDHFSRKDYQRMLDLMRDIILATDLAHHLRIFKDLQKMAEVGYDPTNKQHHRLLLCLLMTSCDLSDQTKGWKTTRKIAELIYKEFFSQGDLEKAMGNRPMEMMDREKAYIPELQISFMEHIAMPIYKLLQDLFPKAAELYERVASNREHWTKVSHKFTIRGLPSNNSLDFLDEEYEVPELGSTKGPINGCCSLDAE
Experimental: (§1) Measurement of phosphodiesterase-inhibiting activity
(§2) Phosphodiestorase-containing fractions were extracted from respiratory tract and heart of guinea pig according to the method of Nicholson et al (Br. J. Pharmacol., 97, 889-897 (1989)), and used as enzyme solutions. The measurement of phosphodiesterase-inhibiting activity was performed by quantitatively determining (Linden et al, J. Immunol. Methods., 151, 209-216 (1992)) the cyclic AMP (cAMP) or cyclic GMP (cGMP) that remains as a result of enzymic reaction (Thompson et al, Biochemistry, 10, 311-316 (1971)) through enzyme immunoassay (EIA).
(§3) This was performed according to the method of Thompson et al. The enzyme solution was placed in a test tube, and 1 μM of cAMP or cGMP was added as a substrate. After reacting for 60 minutes at 30° C., the test tube was dipped for 2 minutes into boiling bath to inactivate phosphodiesterase, thus stopping the reaction. The testing compound was added to the test tube simultaneously with substrate.
(§4) 2) Quantitative determination through EIA […]

[2] = molecular target: T2, phosphodiesterase II from heart (Cavia porcellus, UniProt A0A286XUV5); assay: Measurement of phosphodiesterase-inhibiting activity, heart, II; conditions: guinea pig heart; 1 μM cAMP or cGMP substrate, 60 minutes at 30° C., EIA
T2 construct: fractions were extracted from respiratory tract and heart of guinea pig; from tissue; host or cells: guinea pig heart
T2 sequence (A0A286XUV5 22-936): T1 sequence (A0A286XUV5 22-936)
Experimental: as §1, §2, §3, §4

[3] = molecular target: T3, phosphodiesterase III from respiratory tract (Cavia porcellus, UniProt H0VIU9); assay: Measurement of phosphodiesterase-inhibiting activity, respiratory tract, III; conditions: guinea pig respiratory tract; 1 μM cAMP or cGMP substrate, 60 minutes at 30° C., EIA
T3 construct: fractions were extracted from respiratory tract and heart of guinea pig; from tissue; host or cells: guinea pig respiratory tract
T3 sequence (H0VIU9 1-1132): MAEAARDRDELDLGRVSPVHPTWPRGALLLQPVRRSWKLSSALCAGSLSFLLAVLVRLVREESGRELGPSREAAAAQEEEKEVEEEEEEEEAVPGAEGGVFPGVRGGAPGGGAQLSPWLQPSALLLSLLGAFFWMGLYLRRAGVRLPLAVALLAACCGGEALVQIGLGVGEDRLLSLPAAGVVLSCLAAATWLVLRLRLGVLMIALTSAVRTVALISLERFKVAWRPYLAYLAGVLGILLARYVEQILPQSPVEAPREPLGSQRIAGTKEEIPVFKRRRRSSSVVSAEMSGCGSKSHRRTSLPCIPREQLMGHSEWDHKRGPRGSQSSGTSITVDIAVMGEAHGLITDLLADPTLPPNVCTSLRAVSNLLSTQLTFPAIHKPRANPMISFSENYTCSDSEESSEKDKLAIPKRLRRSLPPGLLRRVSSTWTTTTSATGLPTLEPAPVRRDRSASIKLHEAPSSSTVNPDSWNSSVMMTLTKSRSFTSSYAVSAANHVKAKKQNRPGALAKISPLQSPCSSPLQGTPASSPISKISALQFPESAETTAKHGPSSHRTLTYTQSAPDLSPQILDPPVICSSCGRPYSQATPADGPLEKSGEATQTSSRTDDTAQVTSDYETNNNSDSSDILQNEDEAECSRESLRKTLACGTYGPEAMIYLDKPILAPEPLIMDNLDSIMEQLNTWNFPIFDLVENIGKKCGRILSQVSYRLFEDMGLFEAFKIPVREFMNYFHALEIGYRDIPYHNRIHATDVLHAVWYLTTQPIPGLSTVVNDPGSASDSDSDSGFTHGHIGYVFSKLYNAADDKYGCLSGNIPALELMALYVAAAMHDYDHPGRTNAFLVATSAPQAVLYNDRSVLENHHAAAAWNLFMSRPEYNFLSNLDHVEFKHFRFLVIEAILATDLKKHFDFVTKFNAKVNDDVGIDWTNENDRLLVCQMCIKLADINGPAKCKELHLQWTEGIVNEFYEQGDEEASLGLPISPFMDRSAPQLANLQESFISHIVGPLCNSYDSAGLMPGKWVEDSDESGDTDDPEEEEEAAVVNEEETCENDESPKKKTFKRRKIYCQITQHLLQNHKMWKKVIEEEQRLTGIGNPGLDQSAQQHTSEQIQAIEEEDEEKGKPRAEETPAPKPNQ
Experimental: as §1, §2, §3, §4

[4] = molecular target: T4, phosphodiesterase III from heart (Cavia porcellus, UniProt H0VIU9); assay: Measurement of phosphodiesterase-inhibiting activity, heart, III; conditions: guinea pig heart; 1 μM cAMP or cGMP substrate, 60 minutes at 30° C., EIA
T4 construct: fractions were extracted from respiratory tract and heart of guinea pig; from tissue; host or cells: guinea pig heart
T4 sequence (H0VIU9 1-1132): T3 sequence (H0VIU9 1-1132)
Experimental: as §1, §2, §3, §4

[5] = molecular target: T5, phosphodiesterase V from respiratory tract (Cavia porcellus, UniProt H0VD23); assay: Measurement of phosphodiesterase-inhibiting activity, respiratory tract, V; conditions: guinea pig respiratory tract; 1 μM cAMP or cGMP substrate, 60 minutes at 30° C., EIA
T5 construct: fractions were extracted from respiratory tract and heart of guinea pig; from tissue; host or cells: guinea pig respiratory tract
Experimental: as §1, §2, §3, §4

[6] = molecular target: phosphodiesterase I from heart; assay: Measurement of phosphodiesterase-inhibiting activity, heart, I; conditions: guinea pig heart; 1 μM cAMP or cGMP substrate, 60 minutes at 30° C., EIA
Experimental: as §1, §2, §3, §4

[7] = molecular target: phosphodiesterase IV from respiratory tract; assay: Measurement of phosphodiesterase-inhibiting activity, respiratory tract, IV; conditions: guinea pig respiratory tract; 1 μM cAMP or cGMP substrate, 60 minutes at 30° C., EIA
Experimental: as §1, §2, §3, §4

IC50 [1]: > 111 µM
IC50 [2]: > 111 µM
IC50 [3]: 14.8 µM
IC50 [4]: 18.5 µM
IC50 [5]: 0.37 µM
IC50 Heart I [6]: > 30 µg/mL
IC50 Respiratory tract IV [7]: 5 µg/mL (≈ 18.5 µM)
Compound: CC1CC(=O)NN=C1c1c(C(C)C)nn2ccccc12 (stereo not shown) [Example 36]
